BindingDB's records for PubMed 7562497 (R. W. Johnson Pharmaceutical Research Institute, 1995)
Several values for one entry are separate records, joined by “and”; a condition that tells them apart may be missing. Equal values may be shown once.

Legend:
[1] = biological target: Sodium-dependent serotonin transporter (Rattus norvegicus, UniProt P31652)
Mu-type opioid receptor = Mu-type opioid receptor (Rattus norvegicus, UniProt P33535)
[2] = biological target: Kappa-type opioid receptor (Rattus norvegicus, UniProt P34975)
Kappa-type opioid receptor, sequence (P34975 whole entry): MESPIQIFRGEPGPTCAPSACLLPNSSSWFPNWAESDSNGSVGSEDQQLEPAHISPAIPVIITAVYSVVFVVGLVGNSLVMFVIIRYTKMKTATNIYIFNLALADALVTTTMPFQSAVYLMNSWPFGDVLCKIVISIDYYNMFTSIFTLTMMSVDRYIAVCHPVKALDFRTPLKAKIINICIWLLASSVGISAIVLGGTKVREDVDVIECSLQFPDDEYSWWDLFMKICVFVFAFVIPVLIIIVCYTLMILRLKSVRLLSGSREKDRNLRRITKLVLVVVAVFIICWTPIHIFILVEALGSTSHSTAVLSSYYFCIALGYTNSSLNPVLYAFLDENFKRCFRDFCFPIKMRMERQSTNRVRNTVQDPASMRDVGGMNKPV

[3] = biological target: Norepinephrine transporter (Rattus norvegicus, UniProt Q9JIA2)

Sodium-dependent serotonin transporter, sequence (P31652 whole entry): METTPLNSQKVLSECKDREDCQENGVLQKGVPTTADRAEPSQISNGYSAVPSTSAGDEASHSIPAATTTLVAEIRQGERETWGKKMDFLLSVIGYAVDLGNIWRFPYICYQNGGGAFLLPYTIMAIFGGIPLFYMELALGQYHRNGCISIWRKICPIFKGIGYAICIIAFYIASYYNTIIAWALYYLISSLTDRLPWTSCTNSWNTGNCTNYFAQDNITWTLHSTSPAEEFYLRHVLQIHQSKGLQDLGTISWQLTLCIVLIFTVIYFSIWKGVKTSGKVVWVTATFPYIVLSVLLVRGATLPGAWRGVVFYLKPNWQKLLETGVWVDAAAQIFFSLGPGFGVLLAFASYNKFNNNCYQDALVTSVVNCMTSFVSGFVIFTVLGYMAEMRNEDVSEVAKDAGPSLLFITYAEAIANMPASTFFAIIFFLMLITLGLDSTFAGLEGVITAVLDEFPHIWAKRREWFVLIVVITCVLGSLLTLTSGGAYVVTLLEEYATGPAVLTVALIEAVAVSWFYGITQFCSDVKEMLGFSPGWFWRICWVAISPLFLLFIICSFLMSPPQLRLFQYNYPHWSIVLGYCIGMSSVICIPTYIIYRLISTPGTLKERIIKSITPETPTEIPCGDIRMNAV
Mu-type opioid receptor, sequence (P33535 whole entry): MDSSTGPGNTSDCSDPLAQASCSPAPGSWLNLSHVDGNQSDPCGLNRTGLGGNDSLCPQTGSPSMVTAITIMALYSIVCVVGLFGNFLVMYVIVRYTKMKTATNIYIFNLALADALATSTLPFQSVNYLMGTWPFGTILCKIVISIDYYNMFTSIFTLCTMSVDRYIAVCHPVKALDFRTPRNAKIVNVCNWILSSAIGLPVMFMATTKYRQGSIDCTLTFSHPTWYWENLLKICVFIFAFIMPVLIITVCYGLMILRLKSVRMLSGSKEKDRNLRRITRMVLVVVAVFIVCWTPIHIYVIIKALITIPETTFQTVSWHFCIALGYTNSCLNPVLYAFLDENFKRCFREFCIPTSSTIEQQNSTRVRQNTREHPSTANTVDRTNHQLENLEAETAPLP

SMILES	Ki [1]	Ki (Mu-type opioid receptor)	Ki [2]	Ki [3]
C=CCN1CC[C@]23CCCCC2[C@H]1Cc1ccc(O)cc13 (stereo partly drawn) [Levallorphan]	> 10000 nM and 7950 nM	–	–	–
CCC(=O)O[C@](Cc1ccccc1)(c1ccccc1)[C@H](C)CN(C)C [PROPOXYPHENE]	> 10000 nM	34.5 nM	1220 nM	> 10000 nM
C=CCN1CC[C@]23c4c5ccc(O)c4O[C@H]2C(=O)CC[C@@]3(O)[C@H]1C5 [[17-(2,3-3H-2-propenyl)]-4,5a-epoxy-3,14-dihydroxymorphinan-6-one]	> 10000 nM	–	–	> 10000 nM
c1cc2c(c(NC3=NCCN3)c1)CCCC2 [NSC_19472]	992 nM and 528 nM and 2350 nM	2120 nM and 1330 nM and > 10000 nM	> 10000 nM	785 nM and 2510 nM and 432 nM
CCC(OC(C)=O)C(CC(C)N(C)C)(c1ccccc1)c1ccccc1 (stereo not drawn)	–	–	–	> 10000 nM
CC1(C)SSC(C)(C)[C@@H](NC(=O)[C@@H](N)Cc2ccc(O)cc2)C(=O)NCC(=O)N[C@@H](Cc2ccccc2)C(=O)N[C@H]1C(=O)O [(4S,7S,13S)-13-[(2S)-2-amino-3-(4-hydroxyphenyl)propanamido]-7-benzyl-3,3,14,14-tetramethyl-6,9,12-trioxo-1,2-dithia-5,8,11-triazacyclotetradecane-4-carboxylic acid]	> 10000 nM	–	> 10000 nM	> 10000 nM
COc1ccc2c3c1O[C@H]1C(=O)CCC4(O)[C@@H](C2)N(C)CC[C@]314 (stereo partly drawn) [Oxycodone]	> 10000 nM	–	–	> 10000 nM
COc1ccc2c(c1)C13CCCCC1C(C2)N(C)CC3 (stereo not drawn) [Levomethorpan]	–	–	–	240 nM and 179 nM
CO[C@@]12CC[C@@]3(C[C@@H]1[C@@](C)(O)C(C)(C)C)[C@H]1Cc4ccc(O)c5c4[C@@]3(CCN1CC1CC1)[C@H]2O5 [BUPRENORPHINE]	> 10000 nM	–	–	> 10000 nM
O=C1CC[C@@]2(O)[C@H]3Cc4ccc(O)c5c4[C@@]2(CCN3CC2CC2)[C@H]1O5 [(1S,5R,13R,17S)-4-(cyclopropylmethyl)-10,17-dihydroxy-12-oxa-4-azapentacyclo[9.6.1.0^{1,13}.0^{5,17}.0^{7,18}]octadeca-7(18),8,10-trien-14-one]	> 10000 nM	–	–	> 10000 nM
CN1CCC23CCCCC2C1Cc1ccc(O)cc13 (stereo not drawn) [17-methyl-17-azatetracyclo[7.5.3.0^{1,10}.0^{2,7}]heptadeca-2(7),3,5-trien-4-ol]	401 nM and 86.3 nM	–	–	340 nM and 1210 nM
C[C@@H](NC(=O)[C@@H](N)Cc1ccc(O)cc1)C(=O)NCC(=O)N(C)[C@@H](Cc1ccccc1)C(=O)NCCO [[tyrosyl-3,5-3H(N)]-D-Ala2-Mephe4-glyol5-enkephalin]	> 10000 nM	–	210 nM	> 10000 nM
COc1ccc2c3c1OC1C(O)C=CC4C(C2)N(C)CCC341 (stereo not drawn) [NSC_223652]	> 10000 nM	–	–	> 10000 nM
COc1ccc2c3c1OC1C(O[Si](C)(C)C)C=CC4C(C2)N(C)CCC341 (stereo not drawn) [CAS_553916]	> 10000 nM	11.1 nM	501 nM	> 10000 nM
